Measurements as given in patent publication US10244762B1, “Solid aquatic organism control composition and method of use” (priority 2016, dated 2019).

Test system: Microcystis aeruginosa
Assay: M. aeruginosa cultures, peroxide held constant with Fe-EDTA and citric acid
Type: cell-based
Details: 1.75 ppm H2O2; for In vivo chl a concentrations (± SD) of M. aeruginosa cultures: initial 3.83 ± 0.05 μg/L
Description: Tests were conducted similar to Example 1 to show the efficacy of compositions made according to the present disclosure against Microcystis aeruginosa. M. aeruginosa is a species of fresh water bacteria that can form harmful algal blooms.
Peroxide concentrations were held constant at either 0.5 ppm, 1.5 ppm, 1.75 ppm, or 2.0 ppm. Fe-EDTA was applied at 0.3%, 0.6%, or 0.9% based on the original dry formulation. Citric acid was added at 1% based on the original dry formulation.
For instance, Tables 5 and 6 below illustrate the differences when peroxide was applied at 1.75 ppm.

SMILES: OO [H2O2, hydrogen peroxide]
- In vivo chl a concentrations (± SD) of M. aeruginosa cultures (day 1): 2.87 ± 0.74 µg/L
- In vivo chl a concentrations (± SD) of M. aeruginosa cultures (day 2): 1.72 ± 0.66 µg/L
- In vivo chl a concentrations (± SD) of M. aeruginosa cultures (day 3): 1.31 ± 0.64 µg/L
- In vivo chl a concentrations (± SD) of M. aeruginosa cultures (day 4): 1.32 ± 0.63 µg/L
- Cell density of M. aeruginosa cultures (± SD) (day 4, initial cell density 2.2E+06 ± 7.2E+04 cells/mL): 8.0E+04 cells/mL
